Here are results for 52 compounds from US8778966B2, “Quinolinone derivatives as PARP and tank inhibitors” (Janssen Pharmaceutica, NV, priority 2007, dated 2014).

Like-named read-outs stand apart in the source and are kept apart here.

The target of this experiment is T1, TANK-2 enzyme (Homo sapiens, UniProt Q9H2K2).
T1 construct: made in house
T1 sequence (Q9H2K2 1-1166): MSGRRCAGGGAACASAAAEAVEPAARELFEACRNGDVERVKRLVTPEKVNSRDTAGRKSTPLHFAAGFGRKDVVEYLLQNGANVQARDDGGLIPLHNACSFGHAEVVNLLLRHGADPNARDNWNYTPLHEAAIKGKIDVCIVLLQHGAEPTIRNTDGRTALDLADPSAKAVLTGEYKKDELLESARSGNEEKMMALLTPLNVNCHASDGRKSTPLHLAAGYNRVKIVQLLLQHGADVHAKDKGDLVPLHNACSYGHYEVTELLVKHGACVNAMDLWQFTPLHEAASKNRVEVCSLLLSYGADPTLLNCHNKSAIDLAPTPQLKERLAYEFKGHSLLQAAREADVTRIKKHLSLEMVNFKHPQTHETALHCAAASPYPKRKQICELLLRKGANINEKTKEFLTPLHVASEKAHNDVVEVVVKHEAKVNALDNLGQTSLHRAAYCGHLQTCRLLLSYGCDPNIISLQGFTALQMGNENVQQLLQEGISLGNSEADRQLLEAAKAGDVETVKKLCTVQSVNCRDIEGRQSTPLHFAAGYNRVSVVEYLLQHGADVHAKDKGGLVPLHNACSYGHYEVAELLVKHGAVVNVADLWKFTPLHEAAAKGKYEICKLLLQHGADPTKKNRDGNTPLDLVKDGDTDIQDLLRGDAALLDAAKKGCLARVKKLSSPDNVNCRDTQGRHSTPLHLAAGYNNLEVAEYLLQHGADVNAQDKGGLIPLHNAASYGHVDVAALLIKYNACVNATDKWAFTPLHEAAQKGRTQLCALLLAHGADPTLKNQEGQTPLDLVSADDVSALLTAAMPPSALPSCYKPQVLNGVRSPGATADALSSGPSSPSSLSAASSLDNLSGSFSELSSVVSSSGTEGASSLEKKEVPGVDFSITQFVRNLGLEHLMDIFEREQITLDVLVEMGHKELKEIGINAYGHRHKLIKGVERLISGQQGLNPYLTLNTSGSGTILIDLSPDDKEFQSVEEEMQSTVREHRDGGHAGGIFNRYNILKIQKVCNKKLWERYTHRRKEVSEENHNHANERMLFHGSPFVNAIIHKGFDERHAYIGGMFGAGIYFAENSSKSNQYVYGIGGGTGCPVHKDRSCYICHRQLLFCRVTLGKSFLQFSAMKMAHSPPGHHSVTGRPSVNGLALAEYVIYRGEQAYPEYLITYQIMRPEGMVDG
The experiment is described as follows: In vitro Scintillation Proximity Assay (SPA) for TANK-2 inhibitory activity. The class given is biochemical. In outline: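 Results are pIC50 values, with IC50 interpolated linearly around 50% of blank-subtracted control cpm. They come from a scintillation proximity read of TANK-2 (8 μg/ml) self-modification with [3H]-NAD+/NAD, incubated 120 min at room temperature in pH 7.4 Tris buffer containing MgCl2 and DTT. Compounds were first screened at 10^−5 M.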
Background: SPA uses beads or plates that emit light when radiolabelled molecules are held near them.

The mark [1] stands for this setting: read-out: in vitro SPA assay TANK-2 pIC50 (converted).

`CCOc1cccc(CC(C)(C#N)c2ccc3cc(CC)c(=O)[nH]c3c2)c1` (stereo not shown) [Compound 285]: the IC50 under setting [1] is 251 nM. Still for that read-out and setting: for `CCc1cc2ccc(C(C)(C#N)Cc3cccc(NC)n3)cc2[nH]c1=O` (stereo not shown) [Compound 339] the value was 100 nM; for `CCc1cc2ccc(C(C)(C#N)Cc3ccc(F)c(F)c3)cc2[nH]c1=O` (stereo not shown) [Compound 281], 158 nM; for `Cc1cc2ccc([C@](C)(C#N)C3CCc4ccccc43)cc2[nH]c1=O` (single isomer, unassigned) [Compound 386], 1260 nM.

As to `CCc1cc2ccc(C(C)(C#N)Cc3cc(C#N)nc(C)n3)cc2[nH]c1=O` (stereo not shown) [Compound 319], the IC50 under setting [1] is 63.1 nM. For the compound `CCc1cc2ccc(C(C)(C#N)Cc3cccc(C#N)[n+]3[O-])cc2[nH]c1=O` (stereo not shown) [Compound 228], the IC50 under setting [1] is 15.8 nM. As for `CCc1cc2ccc(C(C)(C#N)Cc3cccc(C(=N)NO)c3)cc2[nH]c1=O` (stereo not shown) [Compound 186], the IC50 under setting [1] was 79.4 nM. On to `CCc1cc2c(OC)cc(C(C)(C#N)Cc3nc(OC)cc(OC)n3)cc2[nH]c1=O` (single isomer, unassigned) [Compound 230], for which the IC50 under setting [1] is 20 nM.

Take `CCc1cc2ccc(C(C)(C#N)Cc3c4ccccc4nn3C)cc2[nH]c1=O` (stereo not shown) [Compound 347]: the IC50 under setting [1] was 200 nM. In the case of `CCc1cc2ccc(C(C)(C#N)Cc3nc(Cl)cc(OC)n3)cc2[nH]c1=O` (stereo not shown) [Compound 202], under setting [1], the IC50 was 251 nM. Where the note is “in vitro SPA assay TANK-2 pIC50”, `CCc1cc2ccc(C(C)(C#N)Cc3nc(C#N)cc(OC)n3)cc2[nH]c1=O` (single isomer, unassigned) [Compound 204] showed an IC50 of 158 nM. For `CCc1cc2ccc(C(C)(C#N)Cc3cc(Cl)nc(OC)c3)cc2[nH]c1=O` (stereo not shown) [Compound 351], the IC50 under setting [1] is 158 nM. `CCc1cc2ccc(C(C)(C#N)CN3CCN(c4ccccn4)CC3)cc2[nH]c1=O` (stereo not shown) [Compound 233]: the IC50 under setting [1] was 158 nM. The same measure, in the same setting: the same measure for `C#CCOc1cccc(CC(C)(C#N)c2ccc3cc(CC)c(=O)[nH]c3c2)c1` (stereo not shown) [Compound 196]: 316 nM; for `CCc1cc2ccc(C(C)(C#N)Cc3ccc4c(c3)OC(F)(F)O4)cc2[nH]c1=O` (stereo not shown) [Compound 346]: 501 nM; for `CCc1cc2ccc(C(C)(C#N)Cc3cc(C(C)C)ccc3OC)cc2[nH]c1=O` (stereo not shown) [Compound 288]: 1000 nM.

In the case of `Cc1cc2ccc([C@@](C)(C#N)C3CCc4ccccc43)cc2[nH]c1=O` (single isomer, unassigned) [Compound 385], under setting [1], the IC50 is 2000 nM. As to `CCc1cc2ccc([C@@](C)(C#N)Cc3cccc(C#CCO)c3)cc2[nH]c1=O` (single isomer, unassigned) [Compound 295], under setting [1], the IC50 is 126 nM.

With `CCc1cc2ccc(C(C)(C#N)Cc3cc(C#N)nc(N(C)C)c3)cc2[nH]c1=O` (stereo not shown) [Compound 325], the IC50 under setting [1] was 63.1 nM. Same read-out and setting: for `Cc1cc2ccc(C(C)(C#N)Cc3cccc(OCC4CCOCC4)c3)cc2[nH]c1=O` (stereo not shown) [Compound 261] the value was 2510 nM. For `CCc1cc2ccc(C(C)(C#N)Cc3cccc4[nH]ccc34)cc2[nH]c1=O` (stereo not shown) [Compound 379], the IC50 under setting [1] is 100 nM.

For `CCc1cc2ccc(C(C)(C#N)Cc3cccc(N4CCC(N(C)C)C4)n3)cc2[nH]c1=O` (stereo not shown) [Compound 209], the IC50 under setting [1] was 501 nM.

Turning to `CCc1cc2ccc(C(C)(C#N)CN3CCC(c4ccccc4)CC3)cc2[nH]c1=O` (stereo not shown) [Compound 375], under setting [1], the IC50 is 398 nM. Still for that read-out and setting: for `Cc1cc2ccc(C(C)(C#N)Cc3cccc(I)c3)cc2[nH]c1=O` (stereo not shown) [Compound 256] the value was 1260 nM; for `Cc1cc2ccc(C(C)(C#N)C3CCCc4ccccc43)cc2[nH]c1=O` (stereo not shown) [Compound 404], 2000 nM; for `CCc1cc2ccc(C(C)(C#N)Cc3cc(OC)ccc3F)cc2[nH]c1=O` (stereo not shown) [Compound 171], 200 nM.

Consider `CCc1cc2ccc([C@](C)(C#N)Cc3cccc(/C=C/S(C)(=O)=O)c3)cc2[nH]c1=O` (single isomer, unassigned) [Compound 291], for which the IC50 under setting [1] is 126 nM. On to `CCCC(C#N)(Cc1ccccc1)c1ccc2cc(CC)c(=O)[nH]c2c1` (stereo not shown) [Compound 31], for which the IC50 under setting [1] is 251 nM. On the same count and under the same terms, for `CCc1cc2ccc(C(C)(C#N)Cc3cc(N(C)C)nc(N(C)C)n3)cc2[nH]c1=O` (stereo not shown) [Compound 320] the value was 200 nM. For `CCc1cc2ccc(C(C)(C#N)Cc3cccc(C#Cc4cncn4C)n3)cc2[nH]c1=O` (stereo not shown) [Compound 217], the IC50 under setting [1] was 158 nM.

As to `CCc1cc2ccc(C(C)(C#N)CNCc3ccc(C#N)cc3)cc2[nH]c1=O` (stereo not shown) [Compound 302], the IC50 under setting [1] was 100 nM.

Regarding `CCc1cc2ccc(C(C)(C#N)COCc3ccccc3)cc2[nH]c1=O` (stereo not shown) [Compound 197], under setting [1], the IC50 is 63.1 nM.

Consider `CCc1cc2ccc(C(C)(C#N)Cc3cccc(OC)c3F)cc2[nH]c1=O` (stereo not shown) [Compound 286], for which the IC50 under setting [1] is 200 nM. Still for that read-out and setting: the same measure for `CCc1cc2ccc(C(C)(C#N)Cc3cc(N(C)C)nc(C#N)n3)cc2[nH]c1=O` (stereo not shown) [Compound 317]: 100 nM; for `CCc1cc2ccc(C(C)(C#N)CN(C)Cc3ccc(C#N)cc3)cc2[nH]c1=O` (stereo not shown) [Compound 300]: 398 nM. Same read-out and setting: for `CCc1cc2ccc([C@](C)(C#N)Cc3cc(OC)nc(C)n3)cc2[nH]c1=O` (single isomer, unassigned) [Compound 362] the value was 126 nM; for `CCc1cc2ccc(C(C)(C#N)Cc3cc(N(C)C)nc(OC)n3)cc2[nH]c1=O` (stereo not shown) [Compound 354], 79.4 nM; for `CCc1cc2ccc(C(C)(C#N)Cc3cccc(OCCS(C)(=O)=O)c3)cc2[nH]c1=O` (stereo not shown) [Compound 201], 200 nM. As for `CCc1cc2ccc([C@@](C)(C#N)Cc3cc(OC)nc(C)n3)cc2[nH]c1=O` (single isomer, unassigned) [Compound 361], the IC50 under setting [1] is 50.1 nM. On to `CCc1cc2ccc(C(C)(C#N)Cc3nc(C#N)cc(N(C)C)n3)cc2[nH]c1=O` (stereo not shown) [Compound 318], for which, under setting [1], the IC50 is 126 nM. Turning to `CCc1cc2ccc(C(C#N)(Cc3ccccc3)c3ccc(C#N)cc3)cc2[nH]c1=O` (stereo not shown) [Compound 26], the IC50 under setting [1] was 251 nM.

With `CCc1cc2ccc(C(C)(C#N)Cc3cc(Br)cc4c3OCC4)cc2[nH]c1=O` (stereo not shown) [Compound 378], the IC50 under setting [1] was 251 nM. For the compound `CCc1cc2ccc(C(C)(C#N)Cc3cccc(/C=N/O)c3)cc2[nH]c1=O` (stereo not shown) [Compound 299], the IC50 under setting [1] is 158 nM.

For the compound `CCc1cc2ccc(C(C)(C#N)Cc3cccc4c3CCN4)cc2[nH]c1=O` (stereo not shown) [Compound 237], the IC50 under setting [1] is 126 nM. Still for that read-out and setting: the same measure for `CCc1cc2ccc(C(C#N)(Cc3ccccc3)C(C)C)cc2[nH]c1=O` (stereo not shown) [Compound 30]: 794 nM; for `CCc1cc2ccc(C(C)(C#N)Cc3cccc(-c4ccc[nH]4)c3)cc2[nH]c1=O` (stereo not shown) [Compound 176]: 158 nM; for `Cc1cc2ccc([C@](C)(C#N)[C@H]3CCc4ccccc43)cc2[nH]c1=O` [Compound 387]: 2510 nM.

`CCc1cc2ccc(C(C)(C#N)Cc3cc(Cl)nc(C)n3)cc2[nH]c1=O` (stereo not shown) [Compound 365]: the IC50 under setting [1] is 79.4 nM. The same measure, in the same setting: for `CCc1cc2ccc(C(C)(C#N)Cc3cc(OC)c(OC)c(OC)c3)cc2[nH]c1=O` (stereo not shown) [Compound 289] the value was 251 nM. The same measure, in the same setting: the same measure for `Cc1cc2ccc(C(C)(C#N)C3CCc4ccccc43)cc2[nH]c1=O` (stereo not shown) [Compound 392]: 1260 nM; for `CCc1cc2ccc(C(C)(C#N)Cc3cc(OC)nc(OC)c3)cc2[nH]c1=O` (stereo not shown) [Compound 350]: 126 nM; for `CCc1cc2ccc(C(C)(C#N)Cc3cccc(CCS(C)(=O)=O)c3)cc2[nH]c1=O` (stereo not shown) [Compound 178]: 200 nM.
